SMILES strings stand for the structures.

Chain of BCL2 (P10415 whole entry): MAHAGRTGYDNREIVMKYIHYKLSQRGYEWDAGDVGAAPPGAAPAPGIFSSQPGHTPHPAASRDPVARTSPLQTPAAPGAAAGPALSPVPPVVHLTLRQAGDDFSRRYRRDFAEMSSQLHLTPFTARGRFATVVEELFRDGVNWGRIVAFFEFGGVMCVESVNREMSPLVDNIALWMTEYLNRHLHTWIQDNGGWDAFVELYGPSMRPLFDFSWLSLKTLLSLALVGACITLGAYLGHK

The experiment has as its target BCL2 (Homo sapiens, UniProt P10415). The experiment in a line: Biacore SPR solution inhibition assay of BCL-2 binding to peptide derivatized sensor surfaces. The settings on record: SPR competition; 56 nM BCL2 pre-equilibrated with compound one hour; biotinylated BAK, BAD and NOXA peptide surfaces; 25° C. From the text: The present method includes utility of a Surface plasmon resonance (SPR)-based biosensor (Biacore™ GE Healthcare, Uppsala, Sweden) to characterize BCL-2 inhibitors.
Biacore™ utilizes the phenomenon of surface plasmon resonance (SPR) to detect and measure binding interactions. In a typical Biacore experiment, one of the interacting molecules (ligand) is immobilized on a flexible dextran matrix while the interacting partner (analyte) is allowed to flow across that surface. A binding interaction results in an increase in mass on the sensor surface and a corresponding direct change in the refractive index of the medium in the vicinity of the sensor surface. Changes in refractive index or signal are recorded in resonance units (R.U.) Signal changes due to association and dissociation of complexes are monitored in a non-invasive manner, continuously and in real-time, the results of which are reported in the form of a sensorgram. The SPR assay is configured to examine solution inhibition of BCL-2 binding to peptide derivatized sensor surfaces to generate […] values as a measure of inhibitor potency.
Biacore™ A100 (GE Healthcare, Uppsala, Sweden) was used to conduct all experiments reported herein. Sensor surface preparation and all interaction analyses experiments were performed at 25° C. Reagents were purchased from GE Healthcare. Running buffer containing 10 mM Hepes, pH7.4, 150 mM sodium chloride, 1.25 mM Dithiothreitol, 3% Dimethyl sulfoxide and 0.05% polysorbate 20 were utilized throughout all analyses.
Biotinylated BAK, BAD and NOXA peptides were diluted to 10 nM in running buffer and captured onto a sensor surface pre-derivatized with streptavidin (sensor chip SA) to peptide surface densities in the range 50-100 R.U. Peptide captured surfaces were blocked with 500 μM PEO2-Biotin.
Interaction analyses were performed by first equilibrating each sample within a 6 point three fold compound dilution series in the range 16 μM to 0.004 nM with 56 nM BCL2 for one hour during instrument start-up procedures. Protein compound mixtures were then injected over each peptide surface in parallel for 60 seconds at a flow-rate of 30 μL/min. 56 nM BCL2 control samples were also prepared and run at regular intervals during the assay. Surface regeneration was performed at the end of each analysis cycle by two 30 second injections of 10 mM Glycine, pH 2.5, 1M Sodium Chloride, 0.05% polysorbate 20. Samples and control compound samples were run in duplicate and controls are also run at regular intervals during the assay to monitor surface and assay performance.
Data analyses are carried out using Biacore™ A100 evaluation software v1.1 to validate assay quality. Binding level report points were used relative to BCL2 control samples to calculate % inhibition values for each compound protein mixture.
In general terms: SPR reads the build-up and loss of mass on a sensor chip optically.
The term IC50 denotes the concentration needed to halve the response being measured. Take `CN(C)CC[C@H](CSc1ccccc1)Nc1ccc(S(=O)(=O)Nc2ncnc3c2CCN(C2CCN(CC4=C(c5ccc(Cl)cc5)CC(C)(C)CC4)CC2)C3)cc1S(=O)(=O)C(F)(F)F` [Example 17, (R)-N-(7-(1-((2-(4-chlorophenyl)-4,4-dimethylcyclohex-1-enyl)methyl)piperidin-4-yl)-5,6,7,8-tetrahydropyrido[3,4-d]pyrimidin-4-yl)-4-(4-(dimethylamino)-1-(phenylthio)butan-2-ylamino)-3-(trifluoromethylsulfonyl)benzenesulfonamide]: the IC50 amounted to 22 nM.
On to `O=S(=O)(Nc1nnc2n1CCN(C1CCCN(Cc3ccccc3-c3ccc(Cl)cc3)CC1)C2)c1ccc(N[C@H](CCN2CCOCC2)CSc2ccccc2)c(S(=O)(=O)C(F)(F)F)c1` (stereo partly drawn) [Example 95, N-{7-[1-(4′-Chloro-biphenyl-2-ylmethyl)-azepan-4-yl]-5,6,7,8-tetrahydro-[1,2,4]triazolo[4,3-a]pyrazin-3-yl}-4-((R)-3-morpholin-4-yl-1-phenylsulfanylmethyl-propylamino)-3-trifluoromethanesulfonyl-benzenesulfonamide], for which the IC50 was determined as 1900 nM.
`CN(C)CC[C@H](CSc1cccc(Cl)c1)Nc1ccc(S(=O)(=O)Nc2ncnc3c2CCN(C2CCN(Cc4ccccc4-c4ccc(Cl)cc4)CC2)C3)cc1S(=O)(=O)C(F)(F)F` [Example 26, N-{7-[1-(4′-Chloro-biphenyl-2-ylmethyl)-piperidin-4-yl]-5,6,7,8-tetrahydro-pyrido[3,4-c]pyrimidin-4-yl}-4-[(R)-1-(3-chloro-phenylsulfanylmethyl)-3-dimethylamino-propylamino]-3-trifluoromethanesulfonyl-benzenesulfonamide]: the IC50 stood at 48 nM.
To `[2H]C1(N2CCc3c(ncnc3NS(=O)(=O)c3ccc(N[C@H](CCN4CCOCC4)CSc4ccccc4)c(S(=O)(=O)C(F)(F)F)c3)C2)CCN(CC2=C(c3ccc(Cl)cc3)CC(C)(C)CC2)CC1` [Example 91, (R)-N-(7-(1-((2-(4-chlorophenyl)-4,4-dimethylcyclohex-1-enyl)methyl)-4-deuteropiperidin-4-yl)-5,6,7,8-tetrahydropyrido[3,4-d]pyrimidin-4-yl)-4-(4-morpholino-1-(phenylthio)butan-2-ylamino)-3-(trifluoromethylsulfonyl)benzenesulfonamide] belongs 41 nM; to `CN(C)CC[C@H](CSc1ccccc1)Nc1ccc(S(=O)(=O)Nc2ncnc3c2CCN(C2CCN(Cc4ccccc4-c4ccccc4Cl)CC2)C3)cc1S(=O)(=O)C(F)(F)F` [Example 98], 36 nM.
As for `CC1CC(N2CCn3c(nnc3NS(=O)(=O)c3ccc(N[C@H](CCN4CCOCC4)CSc4ccccc4)c(S(=O)(=O)C(F)(F)F)c3)C2)CCN1Cc1ccccc1-c1ccc(Cl)cc1` (stereo partly drawn) [Example 96, N-{7-[1-(4′-Chloro-biphenyl-2-ylmethyl)-2-methyl-piperidin-4-yl]-5,6,7,8-tetrahydro-[1,2,4]triazolo[4,3-a]pyrazin-3-yl}-4-((R)-3-morpholin-4-yl-1-phenylsulfanylmethyl-propylamino)-3-trifluoromethanesulfonyl-benzenesulfonamide], the figure is 144 nM.
To `CN(C)CC[C@H](CSc1ccccc1)Nc1ccc(S(=O)(=O)Nc2ncnc3c2CCN(C2CCN(Cc4ccccc4-c4cccc(Cl)c4)CC2)C3)cc1S(=O)(=O)C(F)(F)F` [Example 97, N-{7-[1-(3′-Chloro-biphenyl-2-ylmethyl)-piperidin-4-yl]-5,6,7,8-tetrahydro-pyrido[3,4-d]pyrimidin-4-yl}-4-((R)-3-dimethylamino-1-phenylsulfanylmethyl-propylamino)-3-trifluoromethanesulfonyl-benzenesulfonamide] belongs 49 nM.
As to `CN(C)CC[C@H](CSc1ccccc1)Nc1ccc(S(=O)(=O)Nc2ncnc3c2CCN(C2CCN(Cc4ccccc4Br)CC2)C3)cc1S(=O)(=O)C(F)(F)F` [Example 7, (R)-N-(7-(1-(2-bromobenzyl)piperidin-4-yl)-5,6,7,8-tetrahydropyrido[3,4-d]pyrimidin-4-yl)-4-(4-(dimethylamino)-1-(phenylthio)butan-2-ylamino)-3-(trifluoromethylsulfonyl)benzenesulfonamide], the IC50 turned out to be 506 nM.
As to `COC1(Cc2ccccc2Br)CCC(N2CCc3c(ncnc3NS(=O)(=O)c3ccc(N[C@H](CCN(C)C)CSc4ccccc4)c(S(=O)(=O)C(F)(F)F)c3)C2)CC1` (stereo partly drawn) [Example 61, (R)-N-(7-(4-(2-bromobenzyl)-4-methoxycyclohexyl)-5,6,7,8-tetrahydropyrido[3,4-d]pyrimidin-4-yl)-4-(4-(dimethylamino)-1-(phenylthio)butan-2-ylamino)-3-(trifluoromethylsulfonyl)benzenesulfonamide], the IC50 was 306 nM.
To `CC(c1cc(F)ccc1-c1ccc(Cl)cc1)N1CCC(N2CCc3c(ncnc3NS(=O)(=O)c3ccc(N[C@H](CCN4CCN(C)CC4)CSc4ccccc4)c(S(=O)(=O)C(F)(F)F)c3)C2)CC1` (stereo partly drawn) [Example 35, N-(7-(1-(1-(4′-chloro-4-fluorobiphenyl-2-yl)ethyl)piperidin-4-yl)-5,6,7,8-tetrahydropyrido[3,4-d]pyrimidin-4-yl)-4-((R)-4-(4-methylpiperazin-1-yl)-1-(phenylthio)butan-2-ylamino)-3-(trifluoromethylsulfonyl)benzenesulfonamide] belongs 80 nM; to `CC1Cc2c(ncnc2NS(=O)(=O)c2ccc(N[C@H](CCN(C)C)CSc3ccccc3)c(S(=O)(=O)C(F)(F)F)c2)CN1C1CCN(Cc2ccccc2-c2ccc(Cl)cc2)CC1` (stereo in doubt) [Example 48, N—[(S)-7-[1-(4′-Chloro-biphenyl-2-ylmethyl)-piperidin-4-yl]-6-methyl-5,6,7,8-tetrahydro-pyrido[3,4-d]pyrimidin-4-yl]-4-((R)-3-dimethylamino-1-phenylsulfanylmethyl-propylamino)-3 trifluoromethanesulfonyl-benzene sulfonamide], 353 nM.
For `CN(C)CC[C@H](CSc1ccccc1Cl)Nc1ccc(S(=O)(=O)Nc2nc(C(F)(F)F)nc3c2CCN(C2CCN(CC4=C(c5ccc(Cl)cc5)CC(C)(C)CC4)CC2)C3)cc1S(=O)(=O)C(F)(F)F` [Example 32, (R)-N-(7-(1-((2-(4-chlorophenyl)-4,4-dimethylcyclohex-1-enyl)methyl)piperidin-4-yl)-2-(trifluoromethyl)-5,6,7,8-tetrahydropyrido[3,4-d]pyrimidin-4-yl)-4-(1-(2-chlorophenylthio)-4-(dimethylamino)butan-2-ylamino)-3-(trifluoromethylsulfonyl)benzenesulfonamide], the IC50 came out at 87 nM.
As for `CC1Cc2c(ncnc2NS(=O)(=O)c2ccc(N[C@H](CCN(C)C)CSc3ccccc3)c(S(=O)(=O)C(F)(F)F)c2)CN1C1CCN(Cc2ccccc2-c2ccc(Cl)cc2)CC1` (stereo in doubt) [Example 49, N-{(R)-7-[1-(4′-Chloro-biphenyl-2-ylmethyl)-piperidin-4-yl]-6-methyl-5,6,7,8-tetrahydro-pyrido[3,4-d]pyrimidin-4-yl}-4-((R)-3-dimethylamino-1-phenylsulfanylmethyl-propylamino)-3-trifluoromethanesulfonyl-benzenesulfonamide], the figure is 33 nM; as for `CN(C)CC[C@H](CSc1ccccc1)Nc1ccc(S(=O)(=O)Nc2nnc3n2CCN(C2CCN(Cc4ccccc4-c4ccc(Cl)cc4)CC2)CC3)cc1S(=O)(=O)C(F)(F)F` [Example 93, N-{6-[1-(4′-Chloro-biphenyl-2-ylmethyl)-piperidin-4-yl]-5,6,7,8-tetrahydro-4H-1,2,3a,6-tetraaza-azulen-3-yl}-4-((R)-3-dimethylamino-1-phenyl-sulfanylmethyl-propylamino)-3-trifluoromethanesulfonyl-benzenesulfonamide], 24 nM.
On to `[2H]C1(N2CCc3c(ncnc3NS(=O)(=O)c3ccc(N[C@H](CCN4CC5CCC(C4)O5)CSc4ccccc4)c(S(=O)(=O)C(F)(F)F)c3)C2)CCN(CC2=C(c3ccc(Cl)cc3)CC(C)(C)CC2)CC1` [Example 81, 4-((2R)-4-(8-oxa-3-azabicyclo[3.2.1]octan-3-yl)-1-(phenylthio)butan-2-ylamino)-N-(7-(1-((2-(4-chlorophenyl)-4,4-dimethylcyclohex-1-enyl)methyl)-4-deuteropiperidin-4-yl)-5,6,7,8-tetrahydropyrido[3,4-d]pyrimidin-4-yl)-3-(trifluoromethylsulfonyl)-benzenesulfonamide], for which the IC50 came out at 312 nM.

For the origin of these results see patent US8809352B2, “Sulfonamides as inhibitors of Bcl-2 family proteins for the treatments of cancer” (Novartis AG, priority 2009, dated 2014).
